From paper PMC7358525, “Characterization of PF-6142, a Novel, Non-Catecholamine Dopamine Receptor D1 Agonist, in Murine and Nonhuman Primate Models of Dopaminergic Activation” (Frontiers in Pharmacology, 2020) come the findings set out here.

Structures are written as SMILES.

Holding throughout (assay type): in vivo
One assay has as its system mouse locomotor activity. As to the kind of experiment: Mouse locomotor activity (LMA). Here is the method:
Locomotor activity data were measured by an automated infrared photo-beam system in sound attenuating chambers controlled by Versamax® software, provided by Accuscan Instruments Inc. (Columbus, Ohio), which quantified beam breaks similar to the methods used previously ([Xu et al., 2000]). To test D1 receptor selectivity in a pharmacologic model, C57BL/6J mice were habituated to the apparatus for 90 min, followed by pretreatment with vehicle or SCH-23390 (0.01, 0.032, 0.1 0.32, s.c.) and returned to the apparatus for 30 min. […] Data were compared against the vehicle group using a repeated measures one-way ANOVA with a Dunnett’s post-test. To test D1 receptor selectivity in a genetic model, DRD1a WT and knockout mice (D1 KO) were habituated to the apparatus for 90 min, pretreated with vehicle or SCH-23390 (0.032 mg/kg, s.c.) and returned to the apparatus for 30 min. […] Data were compared within genotype using a two-way ANOVA with a Dunnett’s post-hoc test versus vehicle treated group.

In assay [1] the test system is mPFC low frequency delta activity. As to the kind of experiment: mPFC low frequency delta field potential oscillation power, anesthetized rat. Here is the method:
(§1) Experiments were performed on n=10 adult male Sprague-Dawley rats (275–305 g) under urethane anesthesia (1.5 g/kg, i.p.). The femoral vein was cannulated for i.v. administration of drugs. A stimulation electrode was placed in the CA1/subiculum region (coordinates: A-P = +6.3 mm, M–L = +5.2 mm, D-V = +8.0 mm) using stereotactic methods and unilateral local field potential (LFP) was recorded by a metal monopolar macroelectrode placed into the medial PFC (mPFC; coordinates: A-P = +3.0 mm, M-L = +0.6 mm, D-V = +5.0 mm). […] Evoked responses to the first and the second stimuli were identified (P1 and P2, respectively) and the amount of PPF determined by the formula: (P2 amplitude/P1 amplitude). Waveform averages used to calculate PPF consisted of 60 consecutive stimuli. Five minutes were allowed between administration of each drug dose and the starting of the subsequent average of each 10-min period after each cumulative dose (0.1–1 mg/kg, IV). Disruption in power of LFP delta activity was measured as the percentage of power in low frequency (0–1.8 Hz) irregular activity in the total (0–4 Hz) delta power range. LFP power spectra were determined during periods concurrent with waveform averages and PPF calculation. Statistical significance was determined by means of two-tailed paired Student’s t-test.

The test system of assay [2] is MK-801-disrupted paired-pulse facilitation. Briefly: Paired-pulse facilitation (PPF), CA1/subiculum to mPFC, urethane-anesthetized rat. As for the experimental part: as §1
Assay [3] relates to acetylcholine levels in the PFC of WT and D1 KO mice. Briefly: Prefrontal cortex acetylcholine levels via microdialysis, WT and D1 KO mouse. Conditions: SCH-23390 0.32 mg/kg SC, mice. The source says:
Adult male Sprague-Dawley rats (280–360 g) were obtained from Charles-River Laboratories, Raleigh, NC and male C57BL/6J DRD1a WT and D1 DA receptor knockout mice (DRD1a-905781) were obtained from The Jackson Laboratories (Bar Harbor, ME). Animals were housed on a 12-h light/dark cycle with free access to food and water and allowed to acclimate for at least 5 d after arrival. Aseptic technique was used during the surgical procedure in order to prevent infection. On the day of the procedure animals were anesthetized with isoflurane (4%) and their heads shaved. The animals were then placed into a Kopf stereotaxic frame, the surgical area disinfected by swabbing with Provodine solution, and the area isolated with a sterile surgical drape. Anesthesia was maintained with isoflurane (2.5%–3%) delivered through a nose cone using a Univentor 400 anesthesia unit. Animals were given a 0.1 ml subcutaneous (s.c.) injection of Metacam (NSAID, meloxicam, 5 mg/ml, Boehringer Ingelheim) as a post-operative analgesic. Marcaine (bupivacaine, 0.5%, Hospira, Lake Forest, IL), a long acting local anesthetic, was administered s.c. at the surgical area to minimize pain and discomfort.
A 1.5–2 cm incision was made along the midline of the skull, beginning from a point just behind the eyes and running posterior. The skin was retracted with hemostats and the skull was further exposed using blunt dissection with cotton swabs. Bleeding capillaries were cauterized, and the skull dried with a sterile gauze sponge.
A microdialysis guide cannula [Bioanalytical Systems Inc (BAS), West Lafayette, IN, part # MD-2251] was placed into a guide holder on the stereotaxic frame and positioned over “Bregma”. The guide cannula was positioned over the PFC (A-P, +3.2 mm; M-L, +0.7 mm, left, relative to bregma) and the location marked on the skull. Using a 0.7 mm burr, a hole was made in the skull at the cannula position. […]
For conventional analysis, ACh was analyzed by high performance liquid chromatography (HPLC) utilizing a modification of the BAS ACh-choline assay kit (BAS part # MF-8910). […]

The test system of assay [4] is prepulse inhibition of startle. As to the kind of experiment: Mouse prepulse inhibition (PPI) and acoustic startle. The note with it: risperidone 0.56 mg/kg s.c., C57BL/6J mice. As for the experimental part: Drug and behaviorally naïve adult male C57BL/6J mice (9–11 weeks of age; n=8 per dose group) were used for PPI experiments. Subjects were tested individually in SR-Lab acoustic startle chambers (San Diego Instruments, San Diego CA, USA) equipped with a restrainer mounted atop a piezoelectric accelerometer which measured transduced movement in response to the presentation of audio stimuli presented through a speaker mounted 20 cm above the animal. Subjects were acclimated to an anteroom adjacent to the testing room at minimum 60 min prior to testing. Test sessions began with a 5 min acclimation period to background noise (65 dB) followed by presentation of six randomized repetitions of the 120 dB startle stimulus (40 ms duration) presented alone or paired in combination with a pre-pulse stimulus of 68, 72, or 74 db (20 msec in duration) presented 80 msec prior to the 120 dB startle stimulus, which was equivalent to +3, +7, and +9 db over background noise, respectively. Data were also recorded for no stimulus values to evaluate background level of response. The inter-trial interval between stimulus presentations was randomized and ranged from 10 to 20 s. Test compounds were administered 30 min (s.c.) prior to testing. […] Percent PPI was calculated for each individual subject as the relative change in the 120 dB startle response in the presence of each prepulse intensity using the formula: 100-((prepulse-pulse)/pulse)*100 as previously described ([Ralph-Williams et al., 2003]).
The experiment was analyzed using a two-way mixed model ANOVA (lme4 library in R software). The model included prepulse stimulus intensity levels, treatment (as all combinations of pre-treatment and treatment), and their interaction as fixed factors and random intercept, random slope for each animal as random factors. […] In order to adjust for multiple hypothesis testing we used false discover rate method which controls the expected proportion of false discoveries among the rejected hypotheses. For all statistical tests, p < 0.05 between groups was considered significant.

Assay [5] concerns conditioned avoidance responding. As to the kind of experiment: Rat conditioned avoidance response (CAR). Here is the method: The CAR assay was performed under similar conditions previously described ([Marquis et al., 2011]) at WuXiAppTec Inc. (Delin Rd. #90, Waigaoquiao Free Trade Zone, Shanghai 200131, China). For this study, adult male Fisher-344 rats were trained and tested in a two-way active avoidance apparatus with MED-PC software (MED Associates, St. Albans, VT, USA).
Briefly, subjects were handled and acclimated to the shuttle boxes for 2 d prior to training sessions. During training sessions, subjects were trained to avoid an electric footshock by moving to the adjacent, non-stimulus side of the shuttle box upon presentation of tone + light stimuli which preceded the presentation of the footshock (0.6 mA, 10 s duration) by 10 s. For this assay an avoidance was defined as moving to the adjacent compartment during the tone+light presentation that preceded the shock, an escape was defined as moving to the adjacent compartment upon presentation of the shock, and an escape failure was defined as a lack of relocation to the adjacent compartment throughout the presentation of the shock. Subjects received 30 trials of training per day for 5 d. Subjects with ≥ 80% avoidance responses on two consecutive days with no escape failures, were considered qualified for testing, and were randomized across treatment groups (n=8–9 per treatment group). […] Avoidance responding was calculated as % of the number of total trials in which an avoidance occurred. Data were calculated for each animal and compared across treatment groups using one-way ANOVA with Dunnett’s post-test versus the vehicle + vehicle treated group.

In the case of `NC[C@@H]1O[C@H](C23CC4CC(CC(C4)C2)C3)Cc2c1ccc(O)c2O` [A-77636, reference compound], in the assay on mouse locomotor activity (3.2 mg/kg s.c. daily, CD-1 mice), the “locomotor activity, five consecutive days of dosing” value is on record as “increased locomotor activity”.

On to `C[C@]12N[C@H](Cc3ccccc31)c1ccccc12` [MK-801], for which the “low frequency (0-1.8 Hz) irregular delta activity” value in assay [1] (MK-801 0.1 mg/kg IV (p=0.01)) was “significant increase”. In addition, in assay [2] (MK-801 0.1 mg/kg IV), the “increase of P1 response amplitude” value worked out at 44% and the “increase of P2 response amplitude” value is reported as 10%. For the same compound, the PPF entry in assay [2] (MK-801 0.1 mg/kg IV (p=0.04)) is given as “significant decrease”.

Take `CN1CCc2cc(Cl)c(O)cc2[C@@H](c2ccccc2)C1` [SCH-23390, reference compound]: in assay [3], the “effect on PF-6142-induced increase in PFC ACh level” value is given as “attenuated”. For the same compound, the “effect on PF-6142-increased activity in WT mice” value in the assay on mouse locomotor activity (SCH-23390 0.032 mg/kg s.c. pretreatment) was “attenuated”. Further, in the assay with mouse locomotor activity (SCH-23390 pretreatment 0.01, 0.032, 0.1, 0.32 mg/kg s.c.), the “effect on PF-6142 (10 mg/kg s.c.)-stimulated activity” value is recorded as “blocked”. Besides, in assay [1] (SCH-23390 0.32 mg/kg IV alone (p=0.19)), the “mPFC low frequency delta activity” value is listed as “no significant effect”. Also, in assay [2] (SCH-23390 0.32 mg/kg IV), the “baseline P1 and P2 response amplitudes” value is given as “no effect”. In assay [2] (SCH-23390 0.32 mg/kg IV (p=0.06)), the “control PPF” value is “no impact”. In addition, the “effect on PF-6142 (1-3 mg/kg IV) reversal of MK-801 effects on PPF” value in assay [2] (SCH-23390 0.32 mg/kg IV pretreatment) is “block”.

On to `Cc1nc2n(c(=O)c1CCN1CCC(c3noc4cc(F)ccc34)CC1)CCCC2` [risperidone, reference compound], for which, in assay [4], the “%PPI” value is on record as “produced an increase in %PPI”. Besides, the “mean % avoidance responses” value stood at 83.33% in assay [5] (risperidone 0.1 mg/kg s.c.) and 6.875% in assay [5] (risperidone 0.56 mg/kg s.c. (p<0.001)).
